# Legend:
# [1] = test system: PGE-2; experiment: PMA-induced release of PGE-2 by human keratinocytes; type: cell-based; settings: for PGE-2 (extracellular): Example 12, K02-1H6, PMA 10 ng/ml, 48 h + 24 h
# Experimental: The principle of the assay is based on evaluating the production of pro-inflammatory cytokines by human keratinocytes in response to an irritative stress. […]
# Given the lack of effect of IFN-γ on the production and release of PGE-2, the anti-inflammatory effect of the active agents was studied on normal human keratinocytes (strain K02-1H6) stimulated with PMA. Each active agent was tested at 4 concentrations:
# 1. Treatment of the cells, for 48 h, with the product being studied before induction of the irritative stress.
# 2. Induction of the irritative stress: PMA (10 ng/ml).
# 3. Incubation of the “activated” cells, for 24 h, in the presence of the product being studied.
# 4. Assay of PGE-2 (extracellular) and assay of cellular proteins.
# Tables 37 to 39 below group together the amounts of PGE-2 (pg/μg prot.) obtained after activation of the cells (+PMA), and also the basal amounts (−PMA). The PMA-induced production of PGE-2 and the anti-inflammatory activity (AIA) were calculated, for each concentration, according to: PGE-2 production=[(PGE-2(+PMA)−PGE-2(−PMA)] AIA=[(PGE-2 production(control cells)−PGE-2 production(treated cells))/PGE-2 production(control cells)]×100
# [2] = test system: human keratinocytes, strain K02-1H4; experiment: Cytotoxicity, Neutral Red assay on human keratinocytes strain K02-1H4; type: cell-based; settings: for Viability (72 h), % of control: Example 12, K02-1H4, 72 h
# Experimental: In addition, added to the cytotoxicity study was an assay on human keratinocytes, strain K02-1H4, in order to confirm that the concentrations were nontoxic on the target cells.
# […] […] The cell viability was determined by means of a Neutral Red assay.
# Added to the cytotoxicity study was an assay on human keratinocytes (strain K02-1H4) in order to confirm the nontoxicity of the concentrations on the “target” cells. Table 24 below groups together all the results (cell viability as % of control).
# [3] = Solubility
# [4] = test system: HaCaT human keratinocytes; experiment: Cytotoxicity, Neutral Red colorimetric assay on HaCaT human keratinocytes; type: cell-based; settings: for Viability (24 h), % of control / Viability (72 h), % of control: Example 12, HaCaT
# Experimental: The cytotoxicity was studied on HaCaT human keratinocytes seeded into 96-well plates at a rate of 20×10^3, broad range, and 10×10^3, limited range, cells per well. The cell viability is evaluated by means of a colorimetric assay with Neutral Red. Neutral Red is a weakly cationic dye that penetrates cell membranes by means of a nonionic diffusion phenomenon and binds intracellularly to the phosphate and/or carboxylic groups of the lysosomal matrix. Modifications in the accumulation and retention of Neutral Red are observed when the cell membranes are damaged. The optical density of the solution obtained after incubation of the cells in the presence of Neutral Red is therefore proportional to the number of living cells.
# A broad range of 9 concentrations, from 0.001 to 1 mg/ml, was initially tested. The various test solutions were prepared in DMEM medium, […], supplemented with 10 vol % of FCS, fetal calf serum. […] The cell viability was evaluated by means of a Neutral Red colorimetric assay, after 72 hours of incubation. […] From 1 mg/ml, a slight dose-dependent cytotoxic effect is observed. […]
# A second limited range of between 0.075 and 5 mg/ml was tested. […] The cell viability was evaluated by means of a Neutral Red colorimetric assay, after 72 hours of incubation. The results obtained were similar to those recorded in the absence of DMSO.
structure (smiles),measurement,setting,value
"CC1OC(O[C@@H]2C(CO)OC(OCC3OC(OC(=O)C4CC(C)(C)CC5C6=CCC7C(CC(O)C8C(C)(CO)C(O)C(O)CC78C)C6(C)CCC45)[C@@H](O)C(O)[C@@H]3O)[C@@H](O)C2O)[C@@H](O)C(O)[C@H]1O (stereo partly drawn) [Terminoloside, 1-[O-α-L-rhamnopyranosyl-(1-4)-O-β-glucopyranosol-(1-6)]-O-β-D-glucopyranose 2α,3β,6β,23-tetrahydroxyolea-12-en-28-oate]",PGE-2 production (+PMA minus −PMA),"[1]; Example 12, 0.1 mg/ml",494.2
same,PGE-2 production (+PMA minus −PMA),"[1]; Example 12, 0.25 mg/ml",441.0
same,PGE-2 production (+PMA minus −PMA),"[1]; Example 12, 0.5 mg/ml",279.9
same,PGE-2 production (+PMA minus −PMA),"[1]; Example 12, 1 mg/ml",115.2
same,PGE-2 (extracellular),[1]; 0.1 mg/ml,660.0 pg/μg prot
same,PGE-2 (extracellular),[1]; 0.25 mg/ml,606.80 pg/μg prot
same,PGE-2 (extracellular),[1]; 0.5 mg/ml,445.7 pg/μg prot
same,PGE-2 (extracellular),[1]; 1 mg/ml,321.0 pg/μg prot
same,"Anti-inflammatory activity (%), PGE-2","[1]; Example 12, PMA 10 ng/ml, 1 mg/ml",68.6%
same,inhibition at 100 µg/mL,"[1]; Homo sapiens, Keratinocyte, Example 12, PMA 10 ng/ml, 0.1 mg/ml, read-out: Anti-inflammatory activity (%), PGE-2",0%
same,inhibition at 250 µg/mL,"[1]; Homo sapiens, Keratinocyte, Example 12, PMA 10 ng/ml, 0.25 mg/ml, read-out: Anti-inflammatory activity (%), PGE-2",10.8%
same,inhibition at 500 µg/mL,"[1]; Homo sapiens, Keratinocyte, Example 12, PMA 10 ng/ml, 0.5 mg/ml, read-out: Anti-inflammatory activity (%), PGE-2",43.4%
same,inhibition at 1000 µg/mL,"[1]; Homo sapiens, Keratinocyte, Example 12, PMA 10 ng/ml, 1 mg/ml, read-out: Anti-inflammatory activity (%), PGE-2",69%
same,"Viability (72 h), % of control",[2]; 0.25 mg/ml,101%
same,"Viability (72 h), % of control",[2]; 0.5 mg/ml,103%
same,"Viability (72 h), % of control",[2]; 0.75 mg/ml,103%
same,"Viability (72 h), % of control",[2]; 1.0 mg/ml,102%
same,"Viability (72 h), % of control",[2]; 2.5 mg/ml,99%
same,"Viability (72 h), % of control",[2]; 5 mg/ml,96%
same,"Viability (72 h), % of control",[2]; 10 mg/ml,69%
same,nontoxic concentrations,"[2]; K02-1H4, 72 h of incubation",less than or equal to 2.5 mg/ml
same,solubility,[3],water-soluble
same,"Viability (24 h), % of control",[4]; 0.05 mg/ml,105%
same,"Viability (24 h), % of control",[4]; 0.1 mg/ml,104%
same,"Viability (24 h), % of control",[4]; 0.25 mg/ml,105%
same,"Viability (24 h), % of control",[4]; 0.5 mg/ml,105%
same,"Viability (24 h), % of control",[4]; 1 mg/ml,104%
same,"Viability (24 h), % of control",[4]; 2.5 mg/ml,100%
same,"Viability (24 h), % of control",[4]; 5 mg/ml,81%
same,"Viability (24 h), % of control",[4]; 10 mg/ml,73%
same,"Viability (72 h), % of control",[4]; 0.1 mg/ml,100%
same,"Viability (72 h), % of control",[4]; 0.25 mg/ml,101%
same,"Viability (72 h), % of control",[4]; 0.5 mg/ml,101%
same,"Viability (72 h), % of control",[4]; 0.75 mg/ml,103%
same,"Viability (72 h), % of control",[4]; 1 mg/ml,102%
same,"Viability (72 h), % of control",[4]; 2.5 mg/ml,103%
same,"Viability (72 h), % of control",[4]; 5 mg/ml,93%
same,"Viability (72 h), % of control",[4]; 7.5 mg/ml,86%
same,"Viability (72 h), % of control",[4]; 10 mg/ml,69%
same,concentrations inducing no significant modification of the cell response to Neutral Red,"[4]; HaCaT, 24 h of contact",2500 µg/mL

# — patent US8486900B2, “Method for preparing a Centella asiatica extract rich in madecassoside and in terminoloside” (Bayer Consumer Care AG, priority 2002, dated 2013)
